The record followed here is patent publication US20180042851A1, “SOLID DISPERSIONS” (FMC Corporation, priority 2015, published 2018).

Structures are written as SMILES. Like-named read-outs stand apart in the source and are kept apart here.

Protocol: In vitro dissolution studies of the lovastatin:alginate solid dispersions produced above were carried out using the paddle method equipped with a USP II apparatus at 37.5±0.5° C. and a paddle speed of 50 rpm. The appropriate amount of lovastatin solid dispersion (containing 60 mg lovastatin) was added into 900 mL dissolution medium (0.05M pH6.8 phosphate buffer with 0.1% SDS as non-sink condition). Samples (6 mL) were collected at predetermined time intervals and immediately filtered through a 0.15 μm syringe filter, the first 2 mL of filtrate was discarded and the remaining filtrate was collected for analysis at 237 nm using a UV spectrophotometer (UV-2000, UNIC Instrument Corp., Shanghai, China). Meanwhile, an equal volume of fresh dissolution medium was added.

As for `CC[C@H](C)C(=O)O[C@H]1C[C@@H](C)C=C2C=C[C@H](C)[C@H](CC[C@@H]3C[C@@H](O)CC(=O)O3)[C@H]21` [Drug Alone, lovastatin], the “Cumulative Release (%)” value runs as follows: (0 minutes, 60 mg lovastatin in 900 mL pH6.8 phosphate buffer with 0.1% SDS, 37.5° C., 50 rpm) 0%; (5 minutes, pH6.8 phosphate buffer with 0.1% SDS, non-sink) 13.52%; (10 minutes, pH6.8 phosphate buffer with 0.1% SDS, non-sink) 18.29%; (15 minutes, pH6.8 phosphate buffer with 0.1% SDS, non-sink) 22.81%; (30 minutes, pH6.8 phosphate buffer with 0.1% SDS, non-sink) 29.77%.
